One test deals with T1, CDK2/CycE (Homo sapiens, UniProt P24941).
T1 construct: purchased ProQinase GmbH (Freiburg, Germany); host or cells: insect cells (Sf9)
Nature of the test: CDK2/CycE kinase assay (TR-FRET, 2 mM ATP). It counts as biochemical. The following applies: 2 mM ATP (high ATP); median; read-out: CDK2/CyclinE, 2 mM ATP (high ATP), IC50 (median). In outline:
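GST-tagged human CDK2 and CycE from Sf9 cells, about 10 ng/ml, pre-incubated 15 min at 22 °C with compound in Tris/HCl pH 8.0 buffer. Reaction with 2 mM ATP and 0.75 µM biotinylated peptide for 25 min at 22 °C. Phospho-RB antibody TR-FRET (665/620 nm ratio) read after 1 h; data normalised to no-inhibitor and no-enzyme controls.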
(In general: Time-resolved FRET reads energy transfer from a long-lived donor to a nearby acceptor.)

Test [1] deals with T2, CDK12 (nuclear staining in CAL-120 cells) (Homo sapiens, UniProt Q9NYV4).
T2 construct: endogenous in cells; host or cells: CAL-120 human breast cancer cells (DSMZ ACC 459)
Put plainly: CDK12 nuclear protein level: immunofluorescence/high content analysis (CAL-120). It counts as cell-based. The following applies: for DC50: CAL-120 cells, 24 h, immunofluorescence, 50% reduction of nuclear CDK12 staining intensity, median, read-out: CDK12 degradation IF, DC50- [mol/l] (median); for (IC50 CDK12 high ATP) to (Degradation DC50 CDK12) ratio: ratio of IC50 CDK12 high ATP kinase assay to DC50 CDK12 degradation (IF, CAL-120). The method in brief:
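CAL-120 cells were treated with compound for 24 h at 37 °C, fixed with PFA and immunostained for CDK12. Nuclear CDK12 intensity was quantified by automated image analysis and normalized to DMSO and control. DC50 is the concentration giving 50% reduction of nuclear staining.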

From patent publication US20230117034A1, “PYRAZOLOTRIAZINES” (Bayer Aktiengesellschaft, priority 2019, published 2023) come the findings set out here.

T2 sequence (Q9NYV4 whole entry): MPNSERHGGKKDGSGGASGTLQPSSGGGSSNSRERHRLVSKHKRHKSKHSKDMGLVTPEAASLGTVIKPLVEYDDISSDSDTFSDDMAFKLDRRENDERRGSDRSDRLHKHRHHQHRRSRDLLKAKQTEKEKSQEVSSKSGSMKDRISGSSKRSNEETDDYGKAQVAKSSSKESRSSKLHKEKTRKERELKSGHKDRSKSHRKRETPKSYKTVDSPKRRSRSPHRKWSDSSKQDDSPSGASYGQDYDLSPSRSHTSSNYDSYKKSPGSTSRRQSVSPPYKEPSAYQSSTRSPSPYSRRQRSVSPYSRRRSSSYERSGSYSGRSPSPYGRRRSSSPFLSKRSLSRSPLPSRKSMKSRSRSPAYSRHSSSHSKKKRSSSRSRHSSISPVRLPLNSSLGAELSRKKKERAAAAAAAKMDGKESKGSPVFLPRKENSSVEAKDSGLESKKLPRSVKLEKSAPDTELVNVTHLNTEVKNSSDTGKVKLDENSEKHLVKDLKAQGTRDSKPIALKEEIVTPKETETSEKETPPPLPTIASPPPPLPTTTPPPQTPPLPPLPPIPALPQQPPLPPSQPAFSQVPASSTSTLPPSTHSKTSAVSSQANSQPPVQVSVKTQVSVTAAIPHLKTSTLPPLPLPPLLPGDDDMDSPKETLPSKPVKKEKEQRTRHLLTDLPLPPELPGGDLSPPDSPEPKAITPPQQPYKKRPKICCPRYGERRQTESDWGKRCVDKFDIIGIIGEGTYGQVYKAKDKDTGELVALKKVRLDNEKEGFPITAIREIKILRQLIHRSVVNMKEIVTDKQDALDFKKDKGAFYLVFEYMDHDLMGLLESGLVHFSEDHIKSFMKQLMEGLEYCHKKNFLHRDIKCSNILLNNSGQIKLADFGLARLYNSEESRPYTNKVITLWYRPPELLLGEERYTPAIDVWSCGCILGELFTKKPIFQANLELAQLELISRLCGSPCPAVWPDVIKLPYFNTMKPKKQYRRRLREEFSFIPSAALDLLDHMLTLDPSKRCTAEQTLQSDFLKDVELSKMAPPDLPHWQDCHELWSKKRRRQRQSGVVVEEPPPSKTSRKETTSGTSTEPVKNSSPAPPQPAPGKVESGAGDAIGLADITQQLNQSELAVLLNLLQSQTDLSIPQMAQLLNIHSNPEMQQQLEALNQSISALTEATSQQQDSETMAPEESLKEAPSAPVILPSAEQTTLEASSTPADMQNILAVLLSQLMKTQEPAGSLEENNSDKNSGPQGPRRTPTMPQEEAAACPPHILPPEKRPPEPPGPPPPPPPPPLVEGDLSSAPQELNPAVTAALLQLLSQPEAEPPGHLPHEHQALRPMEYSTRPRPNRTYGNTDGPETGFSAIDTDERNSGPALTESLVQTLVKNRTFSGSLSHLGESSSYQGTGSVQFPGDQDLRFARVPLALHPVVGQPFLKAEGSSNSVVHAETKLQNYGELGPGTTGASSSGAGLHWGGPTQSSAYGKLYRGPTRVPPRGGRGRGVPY
T2 sequence (O75909 whole entry partner): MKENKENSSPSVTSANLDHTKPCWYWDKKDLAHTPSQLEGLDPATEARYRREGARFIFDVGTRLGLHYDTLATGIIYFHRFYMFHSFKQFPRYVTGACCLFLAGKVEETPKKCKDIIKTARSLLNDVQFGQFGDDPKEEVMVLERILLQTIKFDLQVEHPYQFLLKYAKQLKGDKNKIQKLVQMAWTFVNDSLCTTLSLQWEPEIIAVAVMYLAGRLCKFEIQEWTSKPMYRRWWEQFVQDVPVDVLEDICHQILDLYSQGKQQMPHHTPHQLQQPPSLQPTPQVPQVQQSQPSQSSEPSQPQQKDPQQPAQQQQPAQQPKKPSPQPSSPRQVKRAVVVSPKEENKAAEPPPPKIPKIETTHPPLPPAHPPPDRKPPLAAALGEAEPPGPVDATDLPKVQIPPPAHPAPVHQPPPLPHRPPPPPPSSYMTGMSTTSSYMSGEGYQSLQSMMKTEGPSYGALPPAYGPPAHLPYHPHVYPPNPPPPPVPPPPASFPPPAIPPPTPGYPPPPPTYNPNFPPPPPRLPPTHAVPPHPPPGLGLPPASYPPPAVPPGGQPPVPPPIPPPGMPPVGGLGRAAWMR

As for `Brc1cnn2c(NCc3nc4ccccc4[nH]3)nc(N3CCN4CCC3C4)nc12` (stereo not drawn) [Example 350, N-[(1H-benzimidazol-2-yl)methyl]-8-bromo-2-(1,4-diazabicyclo[3.2.1]octan-4-yl)pyrazolo[1,5-a][1,3,5]triazin-4-amine], at CDK2/CycE, the IC50 came to 3.39 µM. In test [1], the DC50 is 6.55 nM and the “(IC50 CDK12 high ATP) to (Degradation DC50 CDK12) ratio” value stood at 1190.

Consider `CC(C)c1cnn2c(NCc3ncc(-c4ccccc4)[nH]3)nc(N3CCOCC3)nc12` [Example 30, 2-(morpholin-4-yl)-N-[(5-phenyl-1H-imidazol-2-yl)methyl]-8-(propan-2-yl)pyrazolo[1,5-a][1,3,5]triazin-4-amine], for which, at CDK2/CycE, the IC50 came out at 7.28 µM. Also, in test [1], the DC50 amounted to 25.7 nM and the “(IC50 CDK12 high ATP) to (Degradation DC50 CDK12) ratio” value stood at 115.

In the case of `CN1C2CCC1CN(c1nc(NCc3nc4c(F)c(F)ccc4[nH]3)n3ncc(C(F)(F)F)c3n1)C2` [Example 356, N-[(4,5-difluoro-1H-benzimidazol-2-yl)methyl]-2-(8-methyl-3,8-diazabicyclo[3.2.1]octan-3-yl)-8-(trifluoromethyl)pyrazolo[1,5-a][1,3,5]triazin-4-amine], the IC50 on CDK2/CycE was more than 20 µM. Moreover, in test [1], the DC50 was 6.68 nM and the “(IC50 CDK12 high ATP) to (Degradation DC50 CDK12) ratio” value is given as 734.

Consider `CN1CCN(c2nc(NCc3nc4c(OC(F)(F)F)cccc4[nH]3)n3ncc(Br)c3n2)CC1` [Example 376, 8-bromo-2-(4-methylpiperazin-1-yl)-N-{[4-(trifluoromethoxy)-1H-benzimidazol-2-yl]methyl}pyrazolo[1,5-a][1,3,5]triazin-4-amine], for which the IC50 at CDK2/CycE was more than 20 µM. In test [1], the DC50 is 12.4 nM and the “(IC50 CDK12 high ATP) to (Degradation DC50 CDK12) ratio” value is given as more than 1615.

In the case of `Fc1c(Cl)ccc2[nH]c(CNc3nc(N4CCOCC4)nc4c(Br)cnn34)nc12` [Example 372, 8-bromo-N-[(5-chloro-4-fluoro-1H-benzimidazol-2-yl)methyl]-2-(morpholin-4-yl)pyrazolo[1,5-a][1,3,5]triazin-4-amine], at CDK2/CycE, the IC50 was determined as 3.65 µM. Moreover, in test [1], the DC50 was determined as 2.44 nM and the “(IC50 CDK12 high ATP) to (Degradation DC50 CDK12) ratio” value is recorded as 110.

`Cc1cc2nc(CNc3nc(N4CCN(C)CC4)nc4c(Br)cnn34)[nH]c2cc1C` [Example 342, 8-bromo-N-[(5,6-dimethyl-1H-benzimidazol-2-yl)methyl]-2-(4-methylpiperazin-1-yl)pyrazolo[1,5-a][1,3,5]triazin-4-amine]: the IC50 at CDK2/CycE was found to be 2.94 µM. In addition, in test [1], the DC50 turned out to be 2.12 nM and the “(IC50 CDK12 high ATP) to (Degradation DC50 CDK12) ratio” value stood at 3129.

On to `CN1CCN(c2nc(NCc3nc4c(F)c(Cl)ccc4[nH]3)n3ncc(C4CC4)c3n2)CC1` [Example 371, N-[(5-chloro-4-fluoro-1H-benzimidazol-2-yl)methyl]-8-cyclopropyl-2-(4-methylpiperazin-1-yl)pyrazolo[1,5-a][1,3,5]triazin-4-amine], for which, at CDK2/CycE, the IC50 was more than 20 µM. In addition, in test [1], the DC50 amounted to 4.16 nM and the “(IC50 CDK12 high ATP) to (Degradation DC50 CDK12) ratio” value is given as 1263.

On to `Fc1ccc2[nH]c(CNc3nc(N4CCOCC4)nc4c(Cl)cnn34)nc2c1F` [Example 357], for which, on CDK2/CycE, the IC50 was 11.9 µM. In test [1], the DC50 was 3.9 nM and the “(IC50 CDK12 high ATP) to (Degradation DC50 CDK12) ratio” value was determined as 295.
